From PMC8037810, “L-Glutaminase Synthesis by Marine Halomonas meridiana Isolated from the Red Sea and Its Efficiency against Colorectal Cancer Cell Lines” (Molecules, 2021) come the findings set out here.

The test has as its system T1, L-glutaminase.
T1 construct: gene glsA; native enzyme purified from culture supernatant (ammonium sulfate, Sephadex G-200); about 57 kDa by SDS-PAGE
Put plainly: Nesslerization of released ammonia; Lineweaver-Burk plot. Format: biochemical, Vreelandella aquamarina. The note with it: Tris buffer, 37 °C; pH of kinetic assay not stated (general assay pH 7, optimum pH 8.0); assayed L-glutamine 0.01-0.8 M, far above the printed Km.

The term Km denotes the concentration of substrate that gives half-maximal velocity.

Regarding `NC(=O)CC[C@H](N)C(=O)O` [L-glutamine], the Km stood at 12.2 µM.
